The values that follow come from BindingDB's records for doi:10.1016/S0960-894X(01)81215-4 (1993).

pIC50: −log10 of the molar value. Where a SMILES comes first, the peptide text is derived from it. [ ]: non-standard residue; d: D form.

By pIC50 is commonly meant the IC50 on a negative log10 scale, so that one unit is a factor of ten. Lower therefore signals a large IC50.

This test in a line: Displacement of [125I]-ET-1 from Endothelin A receptor of rabbit renal artery vascular smooth muscle cells.

In turn, `CC[C@H](C)[C@H](NC(=O)[C@H](CC(=O)O)NC(=O)[C@H](CCC(=O)O)NC(=O)[C@@H](Cc1ccccc1)NC(C)=O)C(=O)N[C@H](C(=O)N[C@@H](Cc1c[nH]c2ccccc12)C(=O)O)[C@@H](C)CC` [(S)-4-((R)-2-Acetylamino-3-phenyl-propionylamino)-4-((S)-2-carboxy-1-{(S)-1-[(S)-(S)-1-((S)-1-carboxy-2-(S)-1H-indol-3-yl-ethylcarbamoyl)-2-methyl-butylcarbamoyl]-2-methyl-butylcarbamoyl}-ethylcarbamoyl)-butyric acid] (Ac-[dF]EDIIW-OH) gave a negative logarithm of the IC50 (pIC50) of 6.19.
